Results published in patent US20210322369A1, “COMPOSITION FOR IMPROVING INTESTINAL ENVIRONMENT AND METHOD FOR IMPROVING INTESTINAL FLORA” (SUNTORY HOLDINGS LIMITED, priority 2018, published 2021).

What was measured:
[1] = tested on: gut flora (Akkermansia bacteria, Firmicutes bacteria, Bacteroidetes bacteria); assay: Gut flora improving action in high fat diet mouse model, 16S rRNA gene analysis of feces after eight weeks of intake; type: in vivo, Mice (C57BL/6J); conditions: high fat diet mice; for abundance ratio of Firmicutes bacteria to Bacteroidetes bacteria: eight weeks, High fat diet group 7.4, Regular diet group 4.2; for abundance ratio of Firmicutes bacteria to Bacteroidetes bacteria / abundance proportion of Akkermansia bacteria in the gut flora: feces; for change in the abundance ratio of Firmicutes bacteria to Bacteroidetes bacteria, in words: oral intake for eight weeks; for change in the abundance ratio of Firmicutes bacteria to Bacteroidetes bacteria, in words / abundance proportion of Akkermansia bacteria in the gut flora: compared to High fat diet group; for abundance proportion of Akkermansia bacteria in the gut flora: oral intake once a day for eight weeks
Source text: The influence of xanthohumol and isoxanthohumol on the gut flora was examined by the following procedure using a high fat diet mouse model. […] The dosage is an intake (mg) of the test substance per kg body weight per day. In the table, “Regular diet” is control diet “[…]” (Research Diets), and “60 kcal % High-fat diet” is very high-fat diet “D12492” (Research Diets); “Catechins” is a preparation “Polyphenon […]” (product name, Mitsui Morin Co., Ltd.). Catechins were used as a positive control. Xanthohumol and isoxanthohumol were the standard samples (purity of 95% or higher) obtained in Preparation Example 1. [table] Mice (C57BL/6J, male, 7 weeks of age, CLEA Japan, Inc.) were purchased, and they were quarantined and acclimatized for one week. […] The selected animals were divided into groups (n=8 in each group) in the group structure shown in Table 1 by the stratified continuous randomization method based on body weight at the end of the acclimatization period. They were fed with free access to specific basic feed and water. The test substance was orally fed once a day for eight weeks. A dosing solution containing a mixture of the test substance and a solvent was used to administer the test substance. The solvent was a 0.5 wt % sodium carboxymethylcellulose (CMC) aqueous solution. The volume of the dosing solution to be administered to each mouse was 10 mL/kg. The amount of the test substance and the volume of the solution were calculated based on the latest body weight. 16S rRNA gene analysis was performed on feces (fresh feces) collected eight weeks after the start of intake of the test substance. 16S rRNA gene analysis was performed by the method described in Examples of JP 2018-8911 A. The abundance proportions (abundance ratio) of intestinal bacteria found in the feces were determined by the gene analysis as the abundance ratio of bacteria in the gut flora. FIG. 1 is a graph showing the abundance proportion (group average) of bacteria in the gut flora of each group. The abundance proportion shown in FIG. 1 is the ratio (occupancy) of each species of bacteria to the total bacterial count in the feces. Verrucomicrobia in FIG. 1 is a higher rank to which Akkermansia bacteria belong. All the Verrucomicrobia bacteria in this analysis were Akkermansia bacteria. The dosage (mg/kg) of isoxanthohumol (IXN) and xanthohumol (XN) in FIG. 1 is the intake (mg) of the test substance per kg body weight per day. […] The abundance ratio of Firmicutes bacteria to Bacteroidetes bacteria was as follows: 4.2 in Regular diet group; 7.4 in High fat diet group; 1.7 in Catechins group; 3.2 in Xanthohumol (60 mg/kg) group; 6.0 in Isoxanthohumol (60 mg/kg) group (Group No. 5); and 2.4 in Isoxanthohumol (180 mg/kg) group (Group No. 6).

[2] = tested on: gut flora (Akkermansia bacteria); assay: Example 2: 16S rRNA gene analysis of cecal contents two weeks after the start of intake; type: in vivo; conditions: 60 mg/kg body weight per day, compared to High fat diet group
Protocol: 16S rRNA gene analysis was performed on feces (fresh feces) collected eight weeks after the start of intake of the test substance. 16S rRNA gene analysis was performed by the method described in Examples of JP 2018-8911 A. The abundance proportions (abundance ratio) of intestinal bacteria found in the feces were determined by the gene analysis as the abundance ratio of bacteria in the gut flora.
Another test was performed using isoxanthohumol as the test substance, with partial modification in the group structure and dosage design. In this test, the cecal contents were collected two weeks after the start of intake of the test substance, and 16S rRNA gene analysis was performed in the same manner as described above.

[3] = 100° C.; cited from earlier work

Structure (SMILES)	abundance ratio of Firmicutes bacteria to Bacteroidetes bacteria ([1]; 60 mg/kg/day oral)	abundance ratio of Firmicutes bacteria to Bacteroidetes bacteria ([1]; 180 mg/kg/day oral)	change in the abundance ratio of Firmicutes bacteria to Bacteroidetes bacteria, in words [1]	abundance proportion of Akkermansia bacteria in the gut flora [1]	abundance ratio of Akkermansia bacteria in the gut flora [2]	stability at high temperature [3]
COc1cc(O)c(CC=C(C)C)c2c1C(=O)CC(c1ccc(O)cc1)O2 (stereo not drawn) [Isoxanthohumol]	6.0	2.4	decrease	increase	increase	stable
COc1cc(O)c(CC=C(C)C)c(O)c1C(=O)/C=C/c1ccc(O)cc1 [Xanthohumol]	3.2		decrease	increase		
